From US20170320939A1, “COLL2-1 PEPTIDE AND ITS NITRATED FORM AS THERAPEUTIC TARGETS FOR OSTEOARTHRITIS TREATMENT” (Université de Liège, priority 2014, published 2017)
“Also recorded” adds a separate entry of the source.

Key:
[1] = tested on: OA synovial fibroblast cells; test: NO production in OA synovial fibroblast cells; assay type: cell-based, human; conditions: Coll2-1 (0.45 and 4.5 nmol) or Coll2-1NO2 (4 and 40 pmol), 24 hours
Method: 1.1 Patients. Synovial tissue samples were obtained from 10 patients (8 women, 2 man; mean age 70 +/−6 years) with osteoarthritis (OA) of the knee at the time of total knee joint replacement surgery. All the subjects provided their informed consent.
1.2 Isolation and culture of synovial cells. Synovium biopsies were digested is with collagenase from Clostridium histolyticum, Type IA (1 mg/ml) (Sigma-Aldrich, Saint-Louis, USA) and 0.25% trypsin (Sigma Aldrich, Saint Louis, USA) with 0.68 mM EDTA in Tris buffer 0.1M, pH 7.4 in complete medium (CM) (DMEM (Dulbecco's Modified Eagle's Medium) Low Glucose supplemented with 10 mM HEPES, 100 U/ml penicillin, 100 μg/ml streptomycin, 2 mM glutamine and 10% fetal calf serum (Lonza, Verviers, Belgium)) for 1 hour at 37° C. The cells suspensions were passed through a 70-μm filter to remove any undigested tissue. The filtered cells suspensions were then collected by centrifugation at 800 g and were cultured in culture flasks. After 24 hours, medium was changed to eliminate non adherent cells. Synovial fibroblasts cells (SFC) were used after three passages. […]
1.7 NO production. Nitric oxide production was evaluated using a DAF2-DA fluorescent probe (Molecular Probes, Leiden, The Netherlands). […] The fluorescence intensity was measured every hour for 6 hours. […] The numbers of adherent cells were measured by cristal violet assay.

[2] = tested on: VEGF; test: VEGF mRNA expression by Real Time PCR in OA synovial fibroblast cells; assay type: cell-based, human; conditions: increasing concentrations: Coll2-1 (0.45 and 4.5 nmol) or Coll2-1NO2 (4 and 40 pmol), 24 hours
Method: 1.3 Treatment of synovial fibroblast cells. Cells were seeded into a six-well plate at the density of 2×10^5 cells/well in 2 ml of CM. When the cells reached confluence, the CM was replaced with 1% serum medium for 24 h to keep the cells quiescent. Cells were incubated for 24 hours with or without peptides Coll2-1 (^108HRGYPGLDG^116; 0.45 and 4.5 nmol) or Coll2-1NO2 (^108HRGYPGLDG-NO2^116; 4 and 40 pmol) at a range of concentrations found in the blood of osteoarthritic patients.
1.4 RNA extraction and Real Time Reverse Transcriptase-Polymerase Chain Reaction (RT PCR). Total RNA were extracted using the RNeasy Mini Kit (Qiagen, Netherlands) and were reverse transcribed with SuperScript III Reverse Transcriptase (Invitrogen, Belgium) according to the manufacturer's instructions. The cDNAs were quantified by real-time quantitative PCR using the Rotor Gene instrument (Qiagen, Venlo, Netherlands) and the SYBR Premix Ex Taq kit (Takara, Verviers, Belgium). The level of gene expression was determined by interpolation with a standard curve. To standardize mRNA levels, HPRT, a house keeping gene, was amplified as an internal control. […]

For HRGYPGLDG [Coll2-1], the “production of NO (nitric oxide)” value [1] was “decreased significantly; also recorded: decrease” and the VEGF expression [2] was “tended to increase”.
